In patent US7572818B2, “2-pyridylethylbenzamide derivative” (Bayer Cropscience S.A., priority 2002, dated 2009):

Columns and labels:
Details in all cases: preventive spray 24 h before inoculation
Alternaria brassicae = test: In vivo test of activity on Alternaria brassicae (crucifer black spot) on radish
Description: In Vivo Test of Activity on Alternaria brassicae (Crucifer Black Spot)
(§1) An aqueous solution of the active material to be tested is prepared at a concentration of 2 g/l by grinding in solution 1 or solution 2:
(§2) • Water • Tween 80 diluted to 10% in water: 5 μl/mg of active material • Clay in a sufficient amount for active material+clay to equal 100 mg; Solution 2
(§3) Concentrated solution containing surfactants and adjuvants conventionally used: 200 μl/mg of active material.
(§4) The aqueous solution is diluted with water so as to obtain the desired concentration.
Radishes of the Pernot variety are sown in a 50/50 pozzolan/peat substrate and maintained at 18-22° C. The treatment is carried out by spraying the aqueous suspension. The untreated control plants are sprayed with water. 24 hours after treatment, the plants are inoculated by spraying a solution of Alternaria brassicae spores (40 000 spores/ml) originating from a 12-day culture.
The radish plants are then maintained at 18-20° C. in a humid atmosphere. The effectiveness of the products is evaluated relative to the control plants after seven to eight days of incubation.
(§5) The effectiveness of the molecules is estimated, at 500 g/ha, 250 g/ha or 330 ppm, by the percentage of control relative to untreated plants. Under these conditions, good effectiveness is defined as more than 80% effectiveness. Average effectiveness is defined as an effectiveness between 50 and 80%. Poor effectiveness is defined as an effectiveness between 10 and 50% and zero effectiveness is defined as less than 10% effectiveness.

Botrytis cinerea = test: In vivo test of activity on Botrytis cinerea on cucumber
Description: In Vivo Test of Activity on Botrytis cinerea on Cucumber
as §1, §2, §3, §4
Cucumbers of the Marketer variety are sown in a 50/50 pozzolan/peat substrate and maintained at 18-22° C. The treatment is carried out by spraying the aqueous suspension. The untreated control plants are sprayed with water.
24 hours after treatment, the plants are inoculated by spraying a solution of Botrytis cinerea spores (150 000 spores/ml) originating from a 15-day culture.
The cucumber plants are then maintained at 11-15° C. in a humid atmosphere. The effectiveness of the products is evaluated relative to the control plants after seven to eight days of incubation.
as §5

Pyrenophora teres = test: In vivo test of activity on Pyrenophora teres (barley net blotch)
Description: In Vivo Test of Activity on Pyrenophora teres (Barley Net Blotch)
as §1, §2, §3, §4
Barley plants of the Express variety are sown in a 50/50 pozzolan/peat substrate and maintained at 12° C. The treatment is carried out at the 1-leaf stage (10 cm) by spraying the aqueous suspension. The untreated control plants are sprayed with water.
24 hours after treatment, the plants are inoculated by spraying a solution of Pyrenophora teres spores (10 000 spores/ml) originating from a 10-day culture.
The barley plants are then maintained at 18° C. in a humid atmosphere. The effectiveness of the products is evaluated relative to the control plants after eight to fifteen days of incubation.
as §5

[1] = Botrytis cinerea, topical, read-out: effectiveness (percentage of control relative to untreated plants)

Row | Compound | effectiveness (percentage of control relative to untreated plants) (Alternaria brassicae; 330 ppm) | effectiveness (percentage of control relative to untreated plants) (Pyrenophora teres; 330 ppm) | other results
1 | O=C(NCCc1ncc(C(F)(F)F)cc1Cl)c1ccccc1OC(F)F [Compound A-187] | good to average | good to average | effectiveness (percentage of control relative to untreated plants) (Botrytis cinerea; 330 ppm): good to average
2 | Cc1ccccc1C(=O)NCCc1ncc(C(F)(F)F)cc1Cl [Compound A-9] | – | – | effectiveness (percentage of control relative to untreated plants) (Alternaria brassicae; 500 g/ha): good to average; effectiveness (percentage of control relative to untreated plants) (Botrytis cinerea; 500 g/ha): good to average; effectiveness (percentage of control relative to untreated plants) (Pyrenophora teres; 500 g/ha): good to average
3 | Cc1cc(F)ccc1C(=O)NCCc1ncc(C(F)(F)F)cc1Cl [Compound A-117] | good to average | good to average | –
4 | CCNC(=O)C(Cc1ncc(C(F)(F)F)cc1Cl)NC(=O)c1ccccc1Br (centres unmarked) [compound 310, N-{1-ethylcarbamoyl-2-[3-chloro-5-(trifluoromethyl)-2-pyridinyl]ethyl}-2-bromobenzamide, reference compound] | – | – | pest or weed control at 250 g/ha (Botrytis cinerea; [1]): < 10%
5 | CCNC(=O)C(Cc1ncc(C(F)(F)F)cc1Cl)NC(=O)c1cccc([N+](=O)[O-])c1 (centres unmarked) [compound 307, N-{1-ethylcarbamoyl-2-[3-chloro-5-(trifluoromethyl)-2-pyridinyl]ethyl}-3-nitrobenzamide, reference compound] | – | – | effectiveness (percentage of control relative to untreated plants) (Alternaria brassicae; 250 g/ha): zero (zero effectiveness is defined as less than 10% effectiveness); pest or weed control at 250 g/ha (Botrytis cinerea; [1]): < 10%
6 | O=C(NCCc1ncc(C(F)(F)F)cc1Cl)c1c(Cl)cccc1Cl [N-{2-[3-chloro-5-(trifluoromethyl)-2-pyridinyl]-ethyl}-2,6-dichlorobenzamide, reference compound] | poor (Poor effectiveness is defined as an effectiveness between 10 and 50%) | – | effectiveness (percentage of control relative to untreated plants) (Alternaria brassicae; 250 g/ha): zero (zero effectiveness is defined as less than 10% effectiveness); pest or weed control at 250 g/ha (Botrytis cinerea; [1]): < 10%; pest or weed control at 330 ppm (Botrytis cinerea; Botrytis cinerea, topical, 330 ppm, read-out: effectiveness (percentage of control relative to untreated plants)): < 10%
7 | O=C(NCCc1c(Cl)cc(C(F)(F)F)c[n+]1[O-])c1ccccc1C(F)(F)F [Compound B-1] | good to average | good to average | –
8 | Cc1ccc(Br)c(C(=O)NCCc2ncc(C(F)(F)F)cc2Cl)c1 [Compound A-134] | good to average | good to average | –
9 | COc1cc(Cl)ccc1C(=O)NCCc1ncc(C(F)(F)F)cc1Cl [Compound A-87] | good to average | good to average | –
10 | CNC(=O)C(Cc1ncc(C(F)(F)F)cc1Cl)NC(=O)c1ccc(-c2ccccc2)cc1 (centres unmarked) [compound 316, N-{1-methylcarbamoyl-2-[3-chloro-5-(trifluoromethyl)-2-pyridinyl]ethyl}-4-phenylbenzamide, reference compound] | – | – | effectiveness (percentage of control relative to untreated plants) (Alternaria brassicae; 250 g/ha): poor (Poor effectiveness is defined as an effectiveness between 10 and 50%); pest or weed control at 250 g/ha (Botrytis cinerea; [1]): < 10%
11 | O=C(NCCc1ncc(C(F)(F)F)cc1Cl)c1cc(F)ccc1Br [Compound A-175] | good to average | – | effectiveness (percentage of control relative to untreated plants) (Botrytis cinerea; 330 ppm): good to average
12 | CS(=O)(=O)c1cc(Br)ccc1C(=O)NCCc1ncc(C(F)(F)F)cc1Cl [Compound A-133] | good to average | good to average | –
13 | CCNC(=O)C(Cc1ncc(C(F)(F)F)cc1Cl)NC(=O)c1ccc(Cl)cc1 (centres unmarked) [compound 306, N-{1-ethylcarbamoyl-2-[3-chloro-5-(trifluoromethyl)-2-pyridinyl]ethyl}-4-chlorobenzamide, reference compound] | – | – | pest or weed control at 250 g/ha (Botrytis cinerea; [1]): < 10%
14 | Cc1ccc(C(=O)NCCc2ncc(C(F)(F)F)cc2Cl)c(C)c1 [Compound A-61] | good to average | good to average | –
15 | CSc1ccccc1C(=O)NCCc1ncc(C(F)(F)F)cc1Cl [Compound A-167] | good to average | good to average | –
16 | O=C(NCCc1ncc(C(F)(F)F)cc1Cl)c1ccc([N+](=O)[O-])cc1Cl [Compound A-96] | good to average | good to average | –
17 | O=C(NCCc1ncc(C(F)(F)F)cc1Cl)c1ccc(Cl)c(F)c1Cl [Compound A-125] | good to average | good to average | –

Row | Compound | effectiveness (percentage of control relative to untreated plants) (Alternaria brassicae; 330 ppm) | effectiveness (percentage of control relative to untreated plants) (Pyrenophora teres; 330 ppm) | other results
18 | COc1ccc(C(=O)NCCc2ncc(C(F)(F)F)cc2Cl)c(OC)c1 [Compound A-83] | good to average | good to average | –
19 | CNC(=O)C(Cc1ncc(C(F)(F)F)cc1Cl)NC(=O)c1ccccc1 (centres unmarked) [compound 314, N-{1-methylcarbamoyl-2-[3-chloro-5-(trifluoromethyl)2-pyridinyl]ethyl}-benzamide, reference compound] | – | – | pest or weed control at 250 g/ha (Botrytis cinerea; [1]): < 10%
20 | O=C(NCCc1ncc(C(F)(F)F)cc1Cl)c1cc(F)ccc1C(F)(F)F [Compound A-172] | – | – | effectiveness (percentage of control relative to untreated plants) (Botrytis cinerea; 330 ppm): good to average
21 | CCNC(=O)C(Cc1ncc(C(F)(F)F)cc1Cl)NC(=O)c1ccccc1 (centres unmarked) [compound 304, N-{1-ethylcarbamoyl-2-[3-chloro-5-(trifluoromethyl)-2-pyridinyl]ethyl}-benzamide, reference compound] | – | – | pest or weed control at 250 g/ha (Botrytis cinerea; [1]): < 10%
22 | N#Cc1ccccc1C(=O)NCCc1ncc(C(F)(F)F)cc1Cl [Compound A-170] | good to average | – | effectiveness (percentage of control relative to untreated plants) (Botrytis cinerea; 330 ppm): good to average
23 | CNC(=O)C(Cc1ncc(C(F)(F)F)cc1Cl)NC(=O)c1ccc(OC)cc1 (centres unmarked) [compound 315, N-{1-methylcarbamoyl-2-[3-chloro-5-(trifluoromethyl)-2-pyridinyl]ethyl}-4-methoxybenzamide, reference compound] | – | – | pest or weed control at 250 g/ha (Botrytis cinerea; [1]): < 10%
24 | O=C(NCCc1ncc(C(F)(F)F)cc1Cl)c1ccccc1OC(F)(F)F [Compound A-89] | good to average | good to average | –
25 | COc1cc(I)c(C(=O)NCCc2ncc(C(F)(F)F)cc2Cl)cc1OC [Compound A-189] | good to average | – | –
26 | Cc1cccc(C(=O)NCCc2ncc(C(F)(F)F)cc2Cl)c1I [Compound A-179] | good to average | – | –
27 | CSc1cc(F)ccc1C(=O)NCCc1ncc(C(F)(F)F)cc1Cl [Compound A-140] | good to average | good to average | –
28 | O=C(NCCc1ncc(C(F)(F)F)cc1Cl)c1c(F)ccc(F)c1Cl [Compound A-113] | good to average | – | –
29 | CSc1c(Br)ccc(C(=O)NCCc2ncc(C(F)(F)F)cc2Cl)c1F [Compound A-168] | good to average | – | –
30 | CS(=O)(=O)c1cc(Cl)ccc1C(=O)NCCc1ncc(C(F)(F)F)cc1Cl [Compound A-128] | good to average | – | –
31 | CC(C)c1c(Br)cccc1C(=O)NCCc1ncc(C(F)(F)F)cc1Cl [Compound A-151] | good to average | – | –
32 | COc1cc(Cl)c(C(=O)NCCc2ncc(C(F)(F)F)cc2Cl)cc1OC [Compound A-181] | good to average | – | –
33 | O=C(NCCc1ncc(C(F)(F)F)cc1Cl)c1ccccc1O [Compound A-52] | good to average | – | –
